Measured values taken from patent US10870638B2, “Pyridazinone compound or its salt, and herbicide containing it” (ISHIHARA SANGYO KAISHA, LTD., priority 2016, dated 2020).

What was measured:
Experiment in all cases: Test Example 1: foliar treatment, growth inhibition rate on 14th day
Format in all cases: in vivo
Conditions in all cases: active ingredient amount 31 g/ha, 14th day after application
[1] = test system: soybean (Glycine max Merr.)
Text: (§1) Upland field soil was put into a 1/300,000 hectare pot, and seeds of various plants were sown. When the respective plants reached predetermined leaf stage ((1) barnyardgrass (Echinochloa crus-[…].): 0.5 to 2.9 leaf stage, (2) crabgrass (Digitaria sanquinalis L.): 0.5 to 3.0 leaf stage, (3) green foxtail (Setaria viridis L.): 0.5 to 3.2 leaf stage, (4) wild oat (Avena fatua L.): 0.4 to 1.2 leaf stage, (5) italian ryegrass (Lolium multiflorum Lam.): 0.4 to 2.0 leaf stage, (6) redroot pigweed (Amaranthus retroflexus L.): cotyledon stage to 2.2 leaf stage, (7) rice (Oryza sativa L.): 0.2 to 2.7 leaf stage, (8) corn (Zea mays L.): 1.7 to 3.6 leaf stage, (9) wheat (Triticum aestivum L.): 1.3 to 2.3 leaf stage, (10) soybean (Glycine max Merr.); primary leaf stage), wettable powders or emulsifiable concentrates of the compounds of the present invention prepared in accordance with a conventional preparation method, were weighed so as to achieve the prescribed active ingredient amounts, and diluted with water in an amount corresponding to 1,000 liters per 1 hectare (containing 0.1 vol % of an agricultural spreader (surfactant WK manufactured by MARUWA BIOCHEMICAL Co., Ltd.)), and the spray solutions thus prepared were applied for foliar treatment by a small sprayer. On the 14th day after the application, the state of growth of the respective plants was visually observed, and the herbicidal effect was evaluated by a growth inhibition rate (%) of 0 (equivalent to the non-treated area) to 100 (complete kill).

[2] = test system: rice (Oryza sativa L.)
Text: as §1

[3] = test system: wheat (Triticum aestivum L.)
Text: as §1

[4] = test system: barnyardgrass (Echinochloa crus-qalli L.)
Text: as §1

[5] = test system: crabgrass (Digitaria sanquinalis L.)
Text: as §1

[6] = test system: italian ryegrass (Lolium multiflorum Lam.)
Text: as §1

[7] = test system: redroot pigweed (Amaranthus retroflexus L.)
Text: as §1

[8] = test system: corn (Zea mays L.)
Text: as §1

[9] = test system: wild oat (Avena fatua L.)
Text: as §1

[10] = test system: green foxtail (Setaria viridis L.)
Text: as §1

[11] = visual, 0 = non-treated, 100 = complete kill

Row | SMILES | Growth inhibition rate (%) Soybean [1] [%] | Growth inhibition rate (%) Rice [2] [%] | Growth inhibition rate (%) Wheat [3] [%] | Growth inhibition rate (%) Barnyardgrass [4] [%] | Growth inhibition rate (%) Crabgrass [5] [%] | Growth inhibition rate (%) Italian ryegrass [6] [%] | Growth inhibition rate (%) Redroot pigweed [7] [%] | Growth inhibition rate (%) Corn [8] [%] | Growth inhibition rate (%) Wild oat [9] [%] | Growth inhibition rate (%) Green foxtail [10] [%] | Growth inhibition rate (%) Soybean [1, 11] [%] | Growth inhibition rate (%) Rice [2, 11] [%] | Growth inhibition rate (%) Wheat [3, 11] [%] | Growth inhibition rate (%) Barnyardgrass [4, 11] [%] | Growth inhibition rate (%) Crabgrass [5, 11] [%] | Growth inhibition rate (%) Italian ryegrass [6, 11] [%] | Growth inhibition rate (%) Redroot pigweed [7, 11] [%] | Growth inhibition rate (%) Corn [8, 11] [%] | Growth inhibition rate (%) Wild oat [9, 11] [%] | Growth inhibition rate (%) Green foxtail [10, 11] [%]
1 | CCc1nn(C)c(=O)c(-c2cc(Oc3ncc(C(F)(F)F)cc3Cl)ccc2C)c1OCOC [1-138] | 30 | 0 | 83 | 100 | 85 | 70 | 0 | 83 | 90 | 60 | – | – | – | – | – | – | – | – | – | –
2 | Cc1ccc(Oc2ncc(C(F)(F)F)cc2Cl)c(C)c1-c1c(O)c(C)nn(C)c1=O [1-13] | 0 | 40 | 20 | 100 | 95 | 70 | 0 | 88 | 75 | 100 | – | – | – | – | – | – | – | – | – | –
3 | CC(=O)Cn1ncc(O)c(-c2cc(Oc3ncc(C(F)(F)F)cc3Cl)ccc2C)c1=O [1-169] | 0 | 10 | 0 | 90 | 95 | 90 | 20 | 98 | 90 | 99 | – | – | – | – | – | – | – | – | – | –
4 | CCc1nn(C)c(=O)c(-c2cc(Oc3ncc(C(F)(F)F)cc3Cl)ccc2C)c1OC(C)=O [1-137] | 15 | 85 | 85 | 100 | 75 | 93 | 0 | 95 | 93 | 80 | – | – | – | – | – | – | – | – | – | –
5 | Cc1ccc(Oc2ncc(C(F)(F)F)cc2Cl)cc1-c1c(OC(C)OC(=O)OC(C)C)c(C)nn(C)c1=O (stereo not shown) [1-133] | 0 | 0 | 0 | 88 | 0 | 0 | 0 | 0 | 40 | 30 | – | – | – | – | – | – | – | – | – | –
6 | Cc1ccc(S(=O)(=O)Oc2c(C)nn(C)c(=O)c2-c2cc(Oc3cnc4cc(Cl)ccc4n3)ccc2C)cc1 [Compound 3-71] | – | – | – | – | – | – | – | – | – | – | 0 | 15 | 95 | 100 | 90 | 98 | 0 | 0 | 99 | 100
7 | CC(=O)Oc1c(C)nn(C)c(=O)c1-c1cc(Oc2nc3cc(Cl)ccc3o2)ccc1C [Compound 2-139] | 10 | 98 | 95 | 90 | 98 | 98 | 0 | 65 | 98 | 90 | – | – | – | – | – | – | – | – | – | –
8 | Cc1ccc(Oc2cnc3cc(Cl)ccc3n2)cc1-c1c(OC(=O)N(C)c2ccccc2)c(C)nn(C)c1=O [Compound 3-66] | – | – | – | – | – | – | – | – | – | – | 0 | 0 | 10 | 10 | 20 | 40 | 0 | 25 | 50 | 35
9 | COC(=O)OC(C)Oc1cnn(C)c(=O)c1-c1cc(Oc2nc3ccc(Cl)cc3o2)ccc1C (stereo not shown) [Compound 2-178] | 0 | 15 | 75 | 100 | 100 | 98 | 0 | 83 | 95 | 100 | – | – | – | – | – | – | – | – | – | –
10 | CC(=O)Oc1c(C)nn(C)c(=O)c1-c1cc(Oc2ncc(C#N)cc2Cl)ccc1C [Compound 2-60] | 0 | 50 | 0 | 88 | 85 | 40 | 0 | 50 | 50 | 75 | – | – | – | – | – | – | – | – | – | –
11 | Cc1ccc(Oc2cnc3cc(Cl)ccc3n2)cc1-c1c(OC(=O)C(C)(C)C)c(C)nn(C)c1=O [Compound 3-42] | 0 | 60 | 20 | 100 | 20 | 95 | 10 | 30 | 100 | 98 | – | – | – | – | – | – | – | – | – | –
12 | Cc1ccc(Oc2cnc3cc(Cl)ccc3n2)cc1-c1c(OCc2ccccc2)c(C)nn(C)c1=O [Compound 3-41] | 0 | 10 | 99 | 100 | 95 | 99 | 20 | 20 | 98 | 99 | – | – | – | – | – | – | – | – | – | –
13 | Cc1ccc(Oc2cnc3cc(Cl)ccc3n2)cc1-c1c(OC(=O)CC(C)(C)C)c(C)nn(C)c1=O [Compound 3-53] | – | – | – | – | – | – | – | – | – | – | 0 | 40 | 0 | 100 | 93 | 65 | 0 | 0 | 60 | 95
14 | Cc1ccc(Oc2cnc3cc(Cl)ccc3n2)cc1-c1c(OC(=S)N(C)C)c(C)nn(C)c1=O [Compound 3-67] | – | – | – | – | – | – | – | – | – | – | 0 | 40 | 99 | 100 | 95 | 99 | 0 | 50 | 100 | 100
15 | COC(=O)CCC(=O)Oc1c(C)nn(C)c(=O)c1-c1cc(Oc2cnc3cc(Cl)ccc3n2)ccc1C [Compound 3-46] | – | – | – | – | – | – | – | – | – | – | 35 | 98 | 98 | 100 | 99 | 100 | 20 | 50 | 100 | 100
16 | Cc1ccc(Oc2cnc3cc(Cl)ccc3n2)cc1-c1c(OC(=S)Oc2ccccc2)c(C)nn(C)c1=O [Compound 3-62] | – | – | – | – | – | – | – | – | – | – | 20 | 0 | 90 | 100 | 99 | 93 | 0 | 60 | 99 | 99
